Laboratory results as given in patent publication US20120220577A1, “GLYCINE B ANTAGONISTS” (Merz Pharma GmbH & Co KgaA, priority 2009, published 2012).

biological target: T1, glycine binding pocket of the NMDA receptor (Rattus norvegicus, UniProt P35439); experiment: [3H]MDL-105,519 displacement studies (rat cortical membranes); details: displacement of 2 nM [3H]-MDL-105,519, rat cortical membranes; read-out: NMDA-MDL 105519-r-CTX - IC50
T1 construct: For isolation of the cell membranes, the cortices are homogenized; from tissue; host or cells: rat cerebral cortex membranes (male Sprague-Dawley)

| Compound | IC50 |
| --- | --- |
| O=C(O)COc1cc(C(=O)O)cc2cc(Cl)cc(Cl)c12 [Example 1, 4-Carboxymethoxy-5,7-dichloronaphthalene-2-carboxylic acid] | 1180 nM |
| O=C(COc1cc(C(=O)O)cc2cc(Cl)cc(Cl)c12)Nc1ccccc1C(=O)O [Example 3, 4-[(2-Carboxy-phenylcarbamoyl)-methoxy]-5,7-dichloro-naphthalene-2-carboxylic acid] | 765 nM |
| O=C(COc1cc(C(=O)O)cc2cc(Cl)cc(Cl)c12)Nc1ccccc1CO [Example 5, 5,7-Dichloro-4-[(2-hydroxymethylphenylcarbamoyl)-methoxy]-naphthalene-2-carboxylic acid] | 562 nM |
| O=C(O)Cc1ccc(NC(=O)COc2cc(C(=O)O)cc3cc(Cl)cc(Cl)c23)cc1 [Example 7, 4-[(4-Carboxymethylphenylcarbamoyl)-methoxy]-5,7-dichloronaphthalene-2-carboxylic acid] | 958 nM |
| O=C(O)Cc1cccc(NC(=O)COc2cc(C(=O)O)cc3cc(Cl)cc(Cl)c23)c1 [Example 13, 4-[(3-Carboxymethylphenylcarbamoyl)-methoxy]-5,7-dichloronaphthalene-2-carboxylic acid] | 457 nM |
| CN(C(=O)COc1cc(C(=O)O)cc2cc(Cl)cc(Cl)c12)c1ccc(C(=O)O)cc1 [Example 14, 4-{[(4-Carboxy-phenyl)-methylcarbamoyl]-methoxy}-5,7-dichloronaphthalene-2-carboxylic acid] | 4340 nM |
| O=C(O)Cc1ccccc1NC(=O)COc1cc(C(=O)O)cc2cc(Cl)cc(Cl)c12 [Example 15, 4-[(2-Carboxymethylphenylcarbamoyl)-methoxy]-5,7-dichloronaphthalene-2-carboxylic acid] | 503 nM |
| O=C(COc1cc(C(=O)O)cc2cc(Cl)cc(Cl)c12)NCc1ccccc1 [Example 18, 4-(Benzylcarbamoylmethoxy)-5,7-dichloro-naphthalene-2-carboxylic acid] | 988 nM |
| CN(C(=O)COc1cc(C(=O)O)cc2cc(Cl)cc(Cl)c12)c1ccccc1C(=O)O [Example 20, 4-{[(2-Carboxyphenyl)-methylcarbamoyl]-methoxy}-5,7-dichloronaphthalene-2-carboxylic acid] | 405 nM |
| NCc1ccc(NC(=O)COc2cc(C(=O)O)cc3cc(Cl)cc(Cl)c23)c(OCC(=O)O)c1 [Example 34, 4-[(4-Aminomethyl-2-carboxymethoxyphenylcarbamoyl)-methoxy]-5,7-dichloronaphthalene-2-carboxylic acid] | 11.9 nM |
| O=C(O)COc1ccccc1NC(=O)COc1cc(C(=O)O)cc2cc(Cl)cc(Cl)c12 [Example 42, 4-[(2-Carboxymethoxyphenylcarbamoyl)-methoxy]-5,7-dichloronaphthalene-2-carboxylic acid] | 55 nM |
| O=C(O)c1cc(OCC(=O)N2CCCc3ccccc32)c2c(Cl)cc(Cl)cc2c1 [Example 50, 5,7-Dichloro-4-[2-(3,4-dihydro-2H-quinolin-1-yl)-2-oxo-ethoxy]-naphthalene-2-carboxylic acid] | 1190 nM |
| O=C(COc1cc(C(=O)O)cc2cc(Cl)cc(Cl)c12)Nc1ccccc1OCC(=O)N1CCOCC1 [Example 54, 5,7-Dichloro-4-{[2-(2-morpholin-4-yl-2-oxo-ethoxy)-phenylcarbamoyl]-methoxy}-naphthalene-2-carboxylic acid] | 228 nM |
| O=C(O)COc1ccccc1CNC(=O)COc1cc(C(=O)O)cc2cc(Cl)cc(Cl)c12 [Example 59, 4-[(2-Carboxymethoxy-benzylcarbamoyl)-methoxy]-5,7-dichloro-naphthalene-2-carboxylic acid] | 83 nM |
| O=C(COc1cc(C(=O)O)cc2cc(Cl)cc(Cl)c12)Nc1ccccc1OCc1nnn[nH]1 [Example 60, 5,7-Dichloro-4-{[2-(1H-tetrazol-5-ylmethoxy)-phenylcarbamoyl]-methoxy}-naphthalene-2-carboxylic acid] | 203 nM |
| COCC(Oc1cc(C(=O)O)cc2cc(Cl)cc(Cl)c12)C(=O)Nc1ccccc1OC (centres unmarked) [Example 74, 5,7-Dichloro-4-[2-methoxy-1-(2-methoxy-phenylcarbamoyl)-ethoxy]-naphthalene-2-carboxylic acid] | 1010 nM |
| O=C(O)c1cc(OCC(=O)N2CCOc3c(CO)cccc32)c2c(Cl)cc(Cl)cc2c1 [Example 78, 5,7-Dichloro-4-[2-(8-hydroxymethyl-2,3-dihydro-benzo[1,4]oxazin-4-yl)-2-oxo-ethoxy]-naphthalene-2-carboxylic acid] | 988 nM |
